Assay: Cytotoxicity against human A549 cells by SRB assay
Type: toxicity, cell-based

| SMILES | CC50 [µM] |
| --- | --- |
| CCC(CC)O[C@@H]1C=C(C(=O)O)C[C@H](N)[C@H]1NC(C)=O [OSELTAMIVIR CARBOXYLATE] | 61.2 |
| COc1ccc(C(=O)N/N=C(\C)c2ccc(NC(=O)Cc3cccs3)cc2)cc1 | 37.6 |
| C/C(=N\NC(=O)c1ccc(F)cc1)c1ccc(NC(=O)Cc2cccs2)cc1 | 55.3 |

Assay: Inhibition of Influenza A virus H5N1 neuraminidase

| SMILES | IC50 [µM] |
| --- | --- |
| C/C(=N\NC(=O)Cc1cccc2ccccc12)c1ccc(NC(=O)Cc2cccs2)cc1 | 2.78 |
| CCC(CC)O[C@@H]1C=C(C(=O)O)C[C@H](N)[C@H]1NC(C)=O [OSELTAMIVIR CARBOXYLATE] | 0.31 |
| C/C(=N\NC(=O)c1ccc([N+](=O)[O-])cc1)c1ccc(NC(=O)Cc2cccs2)cc1 | 6.1 |
| C/C(=N\NC(=O)Cc1cccc2ccccc12)c1ccc(NC(=O)c2ccco2)cc1 | 46.8 |
| C/C(=N\NC(=O)c1ccc(C(C)(C)C)cc1)c1ccc(NC(=O)c2ccco2)cc1 | 28.6 |
| C/C(=N\NC(=O)c1ccc(O)cc1)c1ccc(NC(=O)Cc2cccs2)cc1 | 0.65 |
| COc1ccc(C(=O)N/N=C(\C)c2ccc(NC(=O)c3ccco3)cc2)cc1 | 32 |
| C/C(=N\NC(=O)c1ccc(Cl)cc1)c1ccc(NC(=O)c2ccco2)cc1 | 21.3 |
| C/C(=N\NC(=O)c1ccc(C(C)(C)C)cc1)c1ccc(NC(=O)Cc2cccs2)cc1 | 0.94 |
| COc1ccc(C(=O)N/N=C(\C)c2ccc(NC(=O)Cc3cccs3)cc2)cc1 | 0.13 |
| C/C(=N\NC(=O)c1ccc([N+](=O)[O-])cc1)c1ccc(NC(=O)c2ccco2)cc1 | 1.53 |
| C/C(=N\NC(=O)c1ccc(Cl)cc1)c1ccc(NC(=O)Cc2cccs2)cc1 | 0.31 |
| C/C(=N\NC(=O)c1ccc(F)cc1)c1ccc(NC(=O)c2ccco2)cc1 | 19.4 |
| C/C(=N\NC(=O)c1ccc(F)cc1)c1ccc(NC(=O)Cc2cccs2)cc1 | 23.6 |
| C/C(=N\NC(=O)c1ccc(O)cc1)c1ccc(NC(=O)c2ccco2)cc1 | 0.2 |

— ChEMBL document CHEMBL5634169 (Bioorg Med Chem Lett, 2024)
